{
  "source": "patent US20240325495A1",
  "about": "“FUSION PROTEINS FOR THE TREATMENT OF DISEASE” (Bristol-Myers Squibb Company, priority 2020, published 2024)",
  "test_system": "NZB×NZW F1 mice",
  "assay": "mIL-2/CD25 and prednisolone combination in NZB×NZW mice",
  "type": "in vivo, mouse",
  "method": "The effect of mIL-2/CD25 on Tregs was also assessed in the spleen at completion of this study (after 14 weeks of treatment).\nAt completion of study, one kidney from each mouse was collected in RNA Later and then homogenized in mRNA Catcher Lysis Buffer with a Tissue Lyser. mRNA was purified using mRNA Catcher PLUS according to the manufacturer's protocol (Invitrogen). cDNA was synthesized using SuperScript II with random hexamer primers. PCR was performed with SYBR Green Master Mix (Invitrogen). Relative quantification analysis was determined using the 2-ΔΔCT method using cyclophilin (PPIA) as the housekeeping gene. Expression of inflammatory cytokine and leukocyte surface receptors were analyzed.",
  "data": [
    {"smiles": "C[C@]12C=CC(=O)C=C1CC[C@@H]1[C@@H]2[C@@H](O)C[C@@]2(C)[C@H]1CC[C@]2(O)C(=O)CO", "note": "[prednisolone, Prednisolone]", "values": [
      {"measurement": "percentage of Tregs and CD25 MFI on Tregs in the spleen", "setting": "after 14 weeks of treatment", "result": "did not alter"},
      {"measurement": "proteinuria levels and anti-dsDNA titers", "setting": "prednisolone 1 mg/kg p.o. 3×/week, mIL-2/CD25 0.1 mg/kg s.c. 2×/week, or both, 14 weeks", "result": "partial protection"}
    ]}
  ]
}
